Target: HIV-2 reverse transcriptase (Human immunodeficiency virus 2)
Assay: Evaluated for inhibition of HIV-2 reverse transcriptase

IC50 [µM]	SMILES
9.6	O=C(CCCC(=O)Nc1ccc(Cl)cc1C(=O)O)Nc1ccc(Cl)cc1C(=O)O [2-({5-[(2-carboxy-4-chlorophenyl)amino]-5-oxopentanoyl}amino)-5-chlorobenzoic acid]
1.7	O=C(CCCCC(=O)Nc1ccc(Br)cc1C(=O)O)Nc1ccc(Br)cc1C(=O)O [5-bromo-2-({6-[(4-bromo-2-carboxyphenyl)amino]-6-oxohexanoyl}amino)benzoic acid]
1.8	O=C(CCCCC(=O)Nc1ccc(Cl)cc1C(=O)O)Nc1ccc(Cl)cc1C(=O)O [2-({6-[(2-carboxy-4-chlorophenyl)amino]-6-oxohexanoyl}amino)-5-chlorobenzoic acid]
6.9	CSc1ccc(NC(=O)CCCCC(=O)Nc2ccc(SC)cc2C(=O)O)c(C(=O)O)c1 [2-[4-(2-carboxy-4-methylsulfanylphenylcarbamoyl)butylcarboxamido]-5-methylsulfanylbenzoic acid]
4.3	COc1ccc(NC(=O)CCCCC(=O)Nc2ccc(OC)cc2C(=O)O)c(C(=O)O)c1 [2-[4-(2-carboxy-4-methoxyphenylcarbamoyl)butylcarboxamido]-5-methoxybenzoic acid]

Target: HIV-2 reverse transcriptase (Human immunodeficiency virus 2)
Assay: Compound was evaluated for inhibition of HIV-2 reverse transcriptase using rC.dG and [3H]-dGTP as substrates at 100 ug/mL

IC50 [µM]	SMILES
7.4	O=C(CCCCCCC(=O)Nc1ccc(Br)cc1C(=O)O)Nc1ccc(Br)cc1C(=O)O [5-bromo-2-[6-(4-bromo-2-carboxyphenylcarbamoyl)hexylcarboxamido]benzoic acid]

Target: HIV-2 reverse transcriptase (Human immunodeficiency virus 2)
Assay: as above
Remark: another data set of the same source

IC50 [µM]	SMILES
32	O=C(CCCCC(=O)Nc1ccc(Br)cc1C(=O)O)Nc1ccc(Br)cc1 [5-Bromo-2-[5-(4-bromo-phenylcarbamoyl)-pentanoylamino]-benzoic acid]
9.2	Cc1ccc(NC(=O)CCCCC(=O)Nc2ccc(C)cc2C(=O)O)c(C(=O)O)c1 [2-[4-(2-carboxy-4-methylphenylcarbamoyl)butylcarboxamido]-5-methylbenzoic acid]

Second part, the compound before the results:

SMILES	IC50 [µM]
O=C(Nc1ccc(Br)cc1C(=O)O)c1ccc(C(=O)Nc2ccc(Br)cc2C(=O)O)nc1 [5-bromo-2-{[(5-{[(4-bromo-2-carboxyphenyl)amino]carbonyl}pyridin-2-yl)carbonyl]amino}benzoic acid]	5.5
O=C(CCCCC(=O)Nc1ccccc1C(=O)O)Nc1ccccc1C(=O)O [2-({6-[(2-carboxyphenyl)amino]-6-oxohexanoyl}amino)benzoic acid]	9

— BindingDB's records for doi:10.1016/s0960-894x(98)00214-5 (Glaxowellcome Medicines Research Center, 1999)
